According to patent US20230085307A1, “PYRIDAZINONE COMPOUND AND HERBICIDE” (NISSAN CHEMICAL CORPORATION, priority 2019, published 2023):

Assays:
late watergrass = assay: Test Example 1: herbicidal activity, application before weed generation under submerged conditions (Table 16, symbol A); format: in vivo, late watergrass (Echinochloa oryzicola); settings: amount of applied herbicide 320 g/ha
Procedure, shortened: (§1)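 Emulsion formulation, water-diluted to set dose, was put onto the flooded surface (4 cm depth, alluvial soil) the same day weeds were sown and 2.5-leaf rice transplanted. After 3 weeks at 25-30 °C under glass, each species was rated 0 (≤5% kill) to 5 (≥90% kill).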

Japanese bulrush = assay: Test Example 1: herbicidal activity, application before weed generation under submerged conditions (Table 16, symbol B); format: in vivo, Japanese bulrush (Schoenoplectus juncoides); settings: amount of applied herbicide 320 g/ha
Procedure, shortened: as §1

barnyard grass [1] = assay: Test Example 3: herbicidal effect by foliage application, Wagner pot (Table 18, symbol H); format: in vivo, barnyard grass (Echinochloa crus-galli); settings: 320 g/ha
Procedure, shortened: (§2)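 Plants were sown in alluvial soil held under 0.1–0.5 cm standing water and grown 14 days in a greenhouse at 25–30 °C. An emulsifiable formulation, water-diluted to the set dose, was then sprayed onto the foliage, and effects were scored three weeks later using previously defined criteria.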

Chinese sprangletop = assay: Test Example 3: herbicidal effect by foliage application, Wagner pot (Table 18, symbol D); format: in vivo, chinese sprangletop (Leptochloa chinensis); settings: 320 g/ha
Procedure, shortened: as §2

rice flat sedge = assay: Test Example 3: herbicidal effect by foliage application, Wagner pot (Table 18, symbol E); format: in vivo, rice flat sedge (Cyperus iria); settings: 320 g/ha
Procedure, shortened: as §2

southern crabgrass = assay: Test Example 4: herbicidal effect by soil treatment (Table 19, symbol F); format: in vivo, southern crabgrass (Digitaria ciliaris); settings: amount of applied herbicide 320 g/ha
Procedure, shortened: (§3)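 Emulsion of test compound, water-diluted to predetermined amount, sprayed on soil after sowing (seed depth ~1.5 cm, sterilized diluvial soil). Greenhouse, 25–30° C. Effect graded at three weeks post-spray.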

green foxtail [2] = assay: Test Example 4: herbicidal effect by soil treatment (Table 19, symbol G); format: in vivo, green foxtail (Setaria viridis); settings: amount of applied herbicide 320 g/ha
Procedure, shortened: as §3

blackgrass [3] = assay: Test Example 4: herbicidal effect by soil treatment (Table 19, symbol J); format: in vivo, blackgrass (Alopecurus myosuroides); settings: amount of applied herbicide 320 g/ha
Procedure, shortened: as §3

redroot pigweed [4] = assay: Test Example 4: herbicidal effect by soil treatment (Table 19, symbol N); format: in vivo, redroot pigweed (Amaranthus retroflexus); settings: amount of applied herbicide 320 g/ha
Procedure, shortened: as §3

green foxtail [5] = assay: Test Example 5: herbicidal effect by foliage application, plastic box (Table 20, symbol G); format: in vivo, green foxtail (Setaria viridis); settings: foliage application, 320 g/ha, three weeks after application
Procedure, shortened: (§4)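 Post-emergence foliar test in sterilized diluvial soil. Compound applied as water-diluted emulsion at a predetermined rate to 14-day-old plants; evaluation at three weeks.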

barnyard grass [6] = assay: Test Example 5: herbicidal effect by foliage application, plastic box (Table 20, symbol H); format: in vivo, barnyard grass (Echinochloa crus-galli); settings: foliage application, 320 g/ha, three weeks after application
Procedure, shortened: as §4

blackgrass [7] = assay: Test Example 5: herbicidal effect by foliage application, plastic box (Table 20, symbol J); format: in vivo, blackgrass (Alopecurus myosuroides); settings: foliage application, 320 g/ha, three weeks after application
Procedure, shortened: as §4

Italian ryegrass = assay: Test Example 5: herbicidal effect by foliage application, plastic box (Table 20, symbol K); format: in vivo, Italian ryegrass (Lolium multiflorum); settings: foliage application, 320 g/ha, three weeks after application
Procedure, shortened: as §4

windgrass = assay: Test Example 5: herbicidal effect by foliage application, plastic box (Table 20, symbol L); format: in vivo, windgrass (Apera spica-venti); settings: foliage application, 320 g/ha, three weeks after application
Procedure, shortened: as §4

velvetleaf = assay: Test Example 5: herbicidal effect by foliage application, plastic box (Table 20, symbol M); format: in vivo, velvetleaf (Abutilon theophrasti); settings: foliage application, 320 g/ha, three weeks after application
Procedure, shortened: as §4

redroot pigweed [8] = assay: Test Example 5: herbicidal effect by foliage application, plastic box (Table 20, symbol N); format: in vivo, redroot pigweed (Amaranthus retroflexus); settings: foliage application, 320 g/ha, three weeks after application
Procedure, shortened: as §4

lambsquarters = assay: Test Example 5: herbicidal effect by foliage application, plastic box (Table 20, symbol O); format: in vivo, lambsquarters (Chenopodium album); settings: foliage application, 320 g/ha, three weeks after application
Procedure, shortened: as §4

persian speedwell = assay: Test Example 5: herbicidal effect by foliage application, plastic box (Table 20, symbol R); format: in vivo, Persian speedwell (Veronica persica); settings: foliage application, 320 g/ha, three weeks after application
Procedure, shortened: as §4

SMILES: COc1ccccc1-c1sc2cc(OCC(F)(F)F)ccc2c1-c1c(O)c(C)nn(C)c1=O [Compound No. 3-116, 5-hydroxy-4-(2-(2-methoxyphenyl)-6-(2,2,2-trifluoroethoxy)benzo[b]thiophen-3-yl)-2,6-di methylpyridazin-3 (2H)-one]
- Herbicidal effect, A: late watergrass (late watergrass): 5 (Herbicidal rate of 90% or more (almost completely withered))
- Herbicidal effect, B: Japanese bulrush (Japanese bulrush): 5 (Herbicidal rate of 90% or more (almost completely withered))
- herbicidal effect on barnyard grass (H) (barnyard grass [1]): 5 (Herbicidal rate of 90% or more (almost completely withered))
- herbicidal effect on Chinese sprangletop (D) (Chinese sprangletop): 5 (Herbicidal rate of 90% or more (almost completely withered))
- herbicidal effect on rice flat sedge (E) (rice flat sedge): 5 (Herbicidal rate of 90% or more (almost completely withered))
- F: southern crabgrass, herbicidal effect grade (southern crabgrass): 5 (Herbicidal rate of 90% or more (almost completely withered))
- G: green foxtail, herbicidal effect grade (green foxtail [2]): 5 (Herbicidal rate of 90% or more (almost completely withered))
- J: blackgrass, herbicidal effect grade (blackgrass [3]): 4 (Herbicidal rate of 70% or more and less than 90%)
- N: redroot pigweed, herbicidal effect grade (redroot pigweed [4]): 5 (Herbicidal rate of 90% or more (almost completely withered))
- G: green foxtail, herbicidal effect grade (green foxtail [5]): 5 (Herbicidal rate of 90% or more (almost completely withered))
- H: barnyard grass, herbicidal effect grade (barnyard grass [6]): 5 (Herbicidal rate of 90% or more (almost completely withered))
- J: blackgrass, herbicidal effect grade (blackgrass [7]): 5 (Herbicidal rate of 90% or more (almost completely withered))
- K: Italian ryegrass, herbicidal effect grade (Italian ryegrass): 5 (Herbicidal rate of 90% or more (almost completely withered))
- L: windgrass, herbicidal effect grade (windgrass): 5 (Herbicidal rate of 90% or more (almost completely withered))
- M: velvetleaf, herbicidal effect grade (velvetleaf): 5 (Herbicidal rate of 90% or more (almost completely withered))
- N: redroot pigweed, herbicidal effect grade (redroot pigweed [8]): 5 (Herbicidal rate of 90% or more (almost completely withered))
- O: lambsquarters, herbicidal effect grade (lambsquarters): 5 (Herbicidal rate of 90% or more (almost completely withered))
- R: persian speedwell, herbicidal effect grade (persian speedwell): 5 (Herbicidal rate of 90% or more (almost completely withered))
